Test results: BindingDB's records for doi:10.1021/jm00396a006 (Upjohn, 1988)
Numbered stars: 1 amine (or outer) side, 2 acyl side, 3 side chain; on linkers, the order of the positions; unused ones are H or OH. Square brackets hold non-standard residues; d marks the D form. Peptide text beside a SMILES is read from it. * marks the point of attachment. ξ: configuration not given here. Sta(3ξ) = CC(C)C[C@H](N[*:1])C(O)CC(=O)[*:2]; X1 = CC(C)CC(N[*:1])C(O)CC(=O)[*:2]; For = O=C*

molecular target: Renin (Sus scrofa); assay: In vitro inhibitory activity towards porcine kidney renin

Row | IC50 [nM] | Structure (SMILES)
1 | 120 | CC[C@H](C)[C@H](NC(=O)CC(O)[C@H](CC(C)C)NC(=O)[C@H](Cc1cnc[nH]1)NC(=O)[C@H](Cc1ccccc1)NC(=O)[C@@H]1CCCN1C(=O)[C@H](Cc1cn(C=O)c2ccccc12)NC(C)=O)C(N)=O (stereo partly drawn) [Ac-Ftr-Pro-Phe-His-Sta-Ile-NH2]
2 | 4.9 | CC(=O)N[C@@H](Cc1cn(C=O)c2ccccc12)C(=O)N1CCC[C@H]1C(=O)N[C@@H](Cc1ccccc1)C(=O)N[C@@H](Cc1cnc[nH]1)C(=O)NC(CC(C)C)C(O)CC(=O)N[C@H](C(=O)N[C@@H](Cc1cn(C=O)c2ccccc12)C(N)=O)C(C)C (stereo partly drawn) [Ac-Ftr-Pro-Phe-His-Sta-Val-Ftr-NH2] (Ac-W(For)PFH[X1]VW(For)-NH2)
3 | 1500 | CC[C@H](C)[C@H](NC(=O)CC(O)[C@H](CC(C)C)NC(=O)[C@H](Cc1cnc[nH]1)NC(=O)[C@H](Cc1ccccc1)NC(=O)[C@@H]1CCCN1C(=O)[C@H](Cc1cnc[nH]1)NC(C)=O)C(N)=O (stereo partly drawn) [Ac-His-Pro-Phe-His-Sta-Ile-NH2] (Ac-HPFH[Sta(3ξ)]I-NH2)
